Measured values as given in patent publication US10653637B2, “Preventives or remedies for hepatopathy” (priority 2003, dated 2020).

Columns and labels:
[1] = system: DMN-induced hepatic fibrosis/liver cirrhosis model; assay: Ghrelin administration in DMN-induced hepatic fibrosis/liver cirrhosis model (survival rate); assay type: in vivo, rat; settings: DMN-treated rats
Protocol: Ghrelin administration experiment using dimethylnitrosoamine (DMN)-induced hepatic fibrosis/liver cirrhosis model (Estimation of survival rate).
A hepatic fibrosis/liver cirrhosis rat model to be induced by DMN was prepared, rat ghrelin was subcutaneously injected, and the effect on hepatopathy was investigated.
Upon use, a dilution in which DMN (manufactured by Wako Pure Chemical Industries, Ltd.) was diluted with a physiological saline solution (manufactured by Otsuka Pharmaceutical Co., Ltd., physiological saline solution described in the Japanese Pharmacopoeia) to 1% concentration (v/v) was prepared, and this was intraperitoneafly administered to male rats (4 weeks old) so that DMN became 1 mL/kg. Administration was performed once a day, for consecutive three days in one week, and administration was repeated for 6 weeks, and the first time administration date was regarded as day 1.
Rat ghrelin (purchased from Peptide Institute Inc., Japan) was added to 5 weight % mannitol as a solvent to a concentration of 1 mg/mL, this was dispensed every necessary amount per one time, and freezing-stored at about −80° C. until its use. Upon use, this was thawed, and diluted with a physiological saline solution to a concentration of 30 μg/mL and 3 μg/mL to obtain a dosing solution. […]

[2] = system: DMN-induced hepatic fibrosis rat; assay: Ghrelin administration in DMN-induced hepatic fibrosis/liver cirrhosis model (organ weight, hematology, serum biochemistry); assay type: in vivo; settings: 35 days, DMN treatment
Protocol: Ghrelin administration experiment using DMN-induced hepatic fibrosis/liver cirrhosis model (Estimation of various parameters)
According to the same manner as that of Example 1 except that administration days were changed from 8 weeks to 35 days, an experiment was performed, and the effect of rat ghrelin on hepatopathy was estimated from a viewpoint of organ weight, hematology and serum biochemistry. A DMN-untreated group (normal rat) was used as a control group.

rat hepatocytes = assay: Rat hepatocyte proliferation promoting activity (ki-67 immunostaining) after one week of repeated administration; assay type: in vivo; settings: ghrelin 10 μg/kg i.v. two times a day for 7 days; for Positive ratio (ki-67): % printed in b244 only; for Number of ki-67 positive cells: among 231±27 hepatocytes, eight places of liver section
Protocol: Rat hepatocyte proliferation promoting activity by repeated administration of ghrelin for one week
10 μg/kg of ghrelin was repeatedly administered intravenously to Wistar male rats two times a day for 7 days and, on the next day from administration completion, liver was isolated and fixed. Then, ki-67 protein as a peptide which is expressed at cell growth phase was immunostained.
For quantatively assessing hepatocyte proliferation activity by ghrelin, eight places of the liver section of one case of the physiological saline-administered group and one case of the ghrelin-administered group were arbitrarily selected, and among about 200 hepatocytes in a visual field, the number of ki-67 positive cells was counted under a microscope.

[3] = system: Wistar male rats after 70% hepatectomy; assay: Liver weight after hepatectomy under 40% restricted diet; assay type: in vivo, rat; settings: ghrelin 30 μg/kg s.c. two times a day for 3 days after 70% hepatectomy, four days after
Protocol: Liver Weight after Hepatectomy
Seventy % of liver was excised under anesthesia in Wistar male rats, and 30 μg/kg of ghrelin or a physiological saline was subcutaneously injected two times a day for 3 days under 40% restricted diet. Four days after, rat liver was isolated, and the liver weight was measured.

Wistar male rats = assay: Organ blood flow (microspheres); assay type: in vivo, rat; settings: ghrelin 30 μg/kg s.c., under anesthesia; for Hepatic blood flow / Spleen blood flow / Stomach blood flow: mean ± standard deviation, 6 rats per group
PCNA mRNA = assay: Expression of hepatocyte proliferation marker PCNA mRNA in liver (real time RT-PCR); assay type: in vivo, rat; settings: ghrelin 30 μg/kg s.c., DMN-induced hepatic fibrosis rats
Protocol: (§1) Amount of expression of hepatocyte proliferation marker (PCNA) and HGF
(§2) Amounts of expression of a PCNA mRNA and a HGF mRNA in the liver after subcutaneous injection of a physiological saline and ghrelin to DMN-induced hepatic fibrosis rats were measured by the real time RT-PCR method.

HGF mRNA = assay: Expression of HGF mRNA in liver (real time RT-PCR); assay type: in vivo, rat; settings: ghrelin 30 μg/kg s.c., DMN-induced hepatic fibrosis rats
Protocol: as §1, §2

[4] = ghrelin 3 μg/kg s.c. once a day
[5] = ghrelin 3 μg/kg s.c. once a day, mean±S.E.
[6] = ghrelin 30 μg/kg s.c. once a day
[7] = ghrelin 30 μg/kg s.c. once a day, listed as ghrelin
[8] = ghrelin 30 μg/kg s.c. once a day, mean±S.E.
[9] = ghrelin 30 μg/kg s.c. once a day, mean±S.E., listed as ghrelin
[10] = ghrelin administration, dose not given

Ghrelin
survived at 56 days ([1]; ghrelin 3 μg/kg s.c. once a day from day 1 over 8 weeks): 75%
survival at 56 days ([1]; ghrelin 30 μg/kg s.c. once a day from day 1 over 8 weeks): all cases survived
Ascites (appearance frequency) [2, 4]: 2/7
Erythrocyte [2, 4]: 6.4 ± 0.2 ×10^6/μL
Fibrinogen [2, 4]: 166 ± 9.5 mg/dL
Hepaplastin time [2, 4]: 86.2 ± 11.8 s
Leukocyte [2, 4]: 7.3 ± 0.6 ×10^3/μL
Platelet [2, 4]: 52.3 ± 6.2 ×10^4/μL
Spleen weight increase as compared with normal rats [2, 4]: more than 2 fold
Δ liver weight [2, 5]: 13.6 ± 0.7 g
Δ spleen weight [2, 5]: 2.20 ± 0.08 g
Δ liver weight (g) ([2]; ghrelin 3 μg/kg s.c. once a day, mean±S.E., listed as ghrelin): reduced as compared with a normal rat
Ascites (appearance frequency) [2, 6]: 0/7
Erythrocyte [2, 6]: 6.8 ± 0.3 ×10^6/μL
Fibrinogen [2, 6]: 207 ± 16.3 mg/dL
Hepaplastin time [2, 6]: 77.8 ± 3.2 s
Leukocyte [2, 6]: 6.6 ± 1.2 ×10^3/μL
Platelet [2, 6]: 89.6 ± 5.5 ×10^4/μL
Ascites (appearance frequency) [2, 7]: ascites did not appear
Erythrocyte [2, 7]: returned to a normal level
Leukocyte [2, 7]: returned to a normal level
Platelet [2, 7]: the number of platelets was recovered
Δ liver weight [2, 8]: 14.3 ± 0.6 g
Δ spleen weight [2, 8]: 1.83 ± 0.12 g
Δ liver weight (g) [2, 9]: reduction in the liver weight was suppressed
Δ spleen weight (g) [2, 9]: increase was slightly suppressed
hepaplastin time (in words) [2, 10]: tended to be normalized
serum fibrinogen (in words) [2, 10]: a tendency that fibrinogen was recovered to normalization
Positive ratio (ki-67) (rat hepatocytes): 9.28 ± 3.26%
Positive ratio (ki-67) (rat hepatocytes; listed as ghrelin): 9.28±3.26%
Number of ki-67 positive cells (rat hepatocytes): 20.9 ± 6.1
Number of ki-67 positive cells (rat hepatocytes; listed as ghrelin): 20.9±6.1
Liver weight [3]: 2.464 ± 0.133
Liver weight ([3]; listed as ghrelin): the liver weight was increased
Hepatic blood flow (Wistar male rats): 1.049 ± 0.414 mL/min/kg
Spleen blood flow (Wistar male rats): 1.099 ± 0.264 mL/min/kg
Stomach blood flow (Wistar male rats): 1.064 ± 0.486 mL/min/kg
Hepatic blood flow (Wistar male rats; listed as ghrelin): increased
Spleen blood flow (Wistar male rats; listed as ghrelin): increased
Stomach blood flow (Wistar male rats; listed as ghrelin): increased
blood flow in jejunum (Wistar male rats; versus physiological saline): a tendency of blood flow increase
PCNA mRNA (amount of expression in the liver) (PCNA mRNA): 2.083 ± 0.533
PCNA mRNA (amount of expression in the liver) (PCNA mRNA; listed as ghrelin): tended to be increased
HGF mRNA (amount of expression in the liver) (HGF mRNA): 2.025 ± 0.595
HGF mRNA (amount of expression in the liver) (HGF mRNA; listed as ghrelin): increased
